Assay results: patent US20250032449A1, “TREATMENT OF RHEUMATOID ARTHRITIS” (SYNACT PHARMA APS, priority 2021, published 2025)
Where two headings read alike, the source gives them in different places.

Assays:
[1] = test system: aminotransferases (ALT or ALAT, AST); conditions: known effect of MTX; cited from earlier work
[2] = test system: MC3R; conditions: cited from earlier work
[3] = test system: macrophages; conditions: cited from earlier work
[4] = test system: mouse primary macrophages; conditions: cited from earlier work
[5] = test system: mouse model of arthritis; conditions: WO 2020/229297; cited from earlier work
[6] = steady conditions, repeated dose Phase I
[7] = test system: peritonitis; conditions: oral, cited from earlier work
[8] = test system: alanine aminotransferase/alanine transaminase (ALAT)
From the text: The study population will consist of newly diagnosed subjects with severe active RA (CDAI (Clinical disease activity score)>22) who are to start up-titration with methotrexate (MTX).
Sodium, potassium, chloride, calcium, glucose, creatinine, urea, albumin, unconjugated and total bilirubin, aspartate transaminase (AST), alanine transaminase (ALT), alkaline phosphatase (ALP), gamma-glutamyl transferase (GGT) and INR. The biochemistry blood samples will be taken at all visits. A serum β-HCG pregnancy test will be taken at screening.
Safety measures (AEs, SAEs, including laboratory abnormalities) will be registered during the whole study duration.
ALAT is commonly elevated following MTX treatment.

[9] = test system: MC1R; conditions: cited from earlier work
[10] = test system: experimental inflammatory arthritis; conditions: oral; cited from earlier work
[11] = test system: newly diagnosed subjects with severe active RA (CDAI>22); assay: Phase IIa placebo-controlled study in early RA patients starting MTX: CDAI; conditions: for CDAI Baseline, group mean / CDAI Screening, group mean / CDAI Week 4, group mean / CDAI Week 2, group mean / CDAI Week 5, group mean / CDAI Difference / CDAI Difference in %: n = 31; for CDAI Baseline, group mean / CDAI Screening, group mean: before treatment; for CDAI Week 4, group mean: end of treatment; for CDAI Week 2, group mean: mid-treatment; for CDAI Week 5, group mean: one week follow-up after last dosage; for CDAI Difference / CDAI Difference in %: week 4 versus baseline
[12] = test system: melanocytes; conditions: cited from earlier work
[13] = 50 mg AP1189 once daily plus MTX weekly, 2 weeks, n 32
[14] = 50 mg AP1189 once daily plus MTX weekly, 4 weeks (end of treatment), n 33
[15] = 50 mg AP1189 once daily plus MTX weekly, 5 weeks (one week after final dosage), n 32
[16] = 100 mg AP1189 once daily plus MTX weekly, 2 weeks, n 34
[17] = 100 mg AP1189 once daily plus MTX weekly, 4 weeks (end of treatment), n 33
[18] = 100 mg AP1189 once daily plus MTX weekly, 5 weeks (one week after final dosage), n 35
[19] = 100 mg dosage AP1189 (acetate salt), with MTX
[20] = 50 mg AP1189 (acetate salt) group
[21] = 50 mg AP1189 (acetate salt) once daily plus MTX (10-25 mg) weekly
[22] = 50 mg AP1189 (acetate salt) once daily plus MTX weekly
[23] = 100 mg AP1189 (acetate salt) group
[24] = 100 mg AP1189 (acetate salt) once daily plus MTX (10-25 mg) weekly
[25] = 100 mg AP1189 (acetate salt) once daily plus MTX weekly

For `CN(Cc1cnc2nc(N)nc(N)c2n1)c1ccc(C(=O)N[C@@H](CCC(=O)O)C(=O)O)cc1` [MTX, methotrexate], the “Effect on aminotransferases (transaminases)” value [1] is listed as “cause an increase in aminotransferases”.
In the case of “(E)-N-trans-{3-[1-(2-nitrophenyl)-1H-pyrrol-2-yl]-allylidene}-aminoguanidinium acetate [AP1189]”, the ERK1/2 phosphorylation [2] is listed as “cause ERK1/2 phosphorylation”, the “canonical cAMP generation” value [2] is listed as “does not induce canonical cAMP generation” and the Cytokine release [3] is listed as “reduce cytokine release”. The Efferocytosis [4] was “proefferocytic effect”, the “Combined effect of AP1189 and methotrexate (MTX)” value [5] was “synergistic effect” and the “C Max (mean +/− SD, N = 9)” value ([6]; 50 mg once daily) was 180 ± 38 ng/mL. The “C Trough (Mean +/− SD, N = 9)” value ([6]; 50 mg once daily) was 46 ± 14 ng/mL, the “C Max (mean +/− SD, N = 9)” value ([6]; 100 mg once daily) was 427 ± 76 ng/mL and the “C Trough (Mean +/− SD, N = 9)” value ([6]; 100 mg once daily) was 100 ± 25 ng/mL. The “C Max (mean +/− SD, N = 9)” value ([6]; 200 mg once daily) was 893 ± 198 ng/mL, the “C Trough (Mean +/− SD, N = 9)” value ([6]; 200 mg once daily) was 186 ± 45 ng/mL and the “Anti-inflammatory action in peritonitis” value [7] was “elicits anti-inflammatory actions”. The Resolution phase ([7]; peritonitis) was “accelerated the resolution phase”, the “ALAT 2 weeks (share of subjects with clinical significant abnormal value)” value [8, 13] was 6.3% and the “ALAT CSA (Clinical significant abnormal value), number” value [8, 13] was 2. For the same molecule, the “ALAT 4 weeks (share of subjects with clinical significant abnormal value)” value [8, 14] was 6.1%, the “ALAT CSA (Clinical significant abnormal value), number” value [8, 14] was 2 and the “ALAT 5 weeks (share of subjects with clinical significant abnormal value)” value [8, 15] was 6.3%. The “ALAT CSA (Clinical significant abnormal value), number” value [8, 15] was 2, the “Effect on MTX-associated elevation of transaminases” value ([8]; 50 mg dosage AP1189 (acetate salt), with MTX) was “did not reduce MTX-associated elevation of transaminases” and the “ALAT 2 weeks (share of subjects with clinical significant abnormal value)” value [8, 16] was 0.0%. The “ALAT CSA (Clinical significant abnormal value), number” value [8, 16] was 0, the “ALAT 4 weeks (share of subjects with clinical significant abnormal value)” value [8, 17] was 0.0% and the “ALAT CSA (Clinical significant abnormal value), number” value [8, 17] was 0. For the same molecule, the “ALAT 5 weeks (share of subjects with clinical significant abnormal value)” value [8, 18] was 0.0%, the “ALAT CSA (Clinical significant abnormal value), number” value [8, 18] was 0 and the “Effect on MTX-associated elevation of transaminases” value [8, 19] was “completely abolish the MTX-associated elevation of transaminases”. For the same molecule, the ALAT change ([8]; dosage of 50 mg, with MTX, at 2 weeks, 4 weeks (EoT) and 5 weeks (FoV)) was “an increase in ALAT is observed”, the ALAT elevation ([8]; dosage of 100 mg AP1189, with MTX) was 0.0% and the ERK1/2 phosphorylation [9] was “cause ERK1/2 phosphorylation”. For the same molecule, the “canonical cAMP generation” value [9] was “does not induce canonical cAMP generation”, the “Macroscopic and histological parameters of joint disruption” value [10] was “significant reduction” and the “CDAI Baseline, group mean” value [11, 20] was 36.1. For the same molecule, the “CDAI Screening, group mean” value [11, 20] was 35.6, the “CDAI Week 4, group mean” value [11, 21] was 24.2 and the “CDAI Week 2, group mean” value [11, 21] was 29.9. The “CDAI Week 5, group mean” value [11, 21] was 22.9, the “CDAI Difference” value [11, 22] was −11.9 and the “CDAI Difference in %” value [11, 22] was 33%. For the same molecule, the “CDAI Baseline, group mean” value [11, 23] was 39, the “CDAI Screening, group mean” value [11, 23] was 38.9 and the “CDAI Week 4, group mean” value [11, 24] was 23.9. The “CDAI Week 2, group mean” value [11, 24] was 28.9, the “CDAI Week 5, group mean” value [11, 24] was 21.3 and the “CDAI Difference” value [11, 25] was −15.1. The “CDAI Difference in %” value [11, 25] was 39%, the “Efficacy in treating rheumatoid arthritis (CDAI)” value [11, 19] was “a reduction in CDAI” and the “Effect in reducing CDAI” value ([11]; both tested dosages, 50 mg and 100 mg, with MTX) was “significant effect of AP1189 in reducing CDAI”. The Melanogenesis [12] was “no melanogenesis was induced”.
